One assay has as its system ob/ob and db/db mice. The following applies: 8 day administration; cited from earlier work.
The target in assay [1] is T1, AMPK protein (recombinant α1β1γ2) (Homo sapiens, UniProt Q13131+Q9Y478).
T1 construct: made in house; host or cells: E. coli
Put plainly: AMPK enzymatic activity (Delfia, AMARA peptide). The assay is classed as biochemical. Conditions: compound 30 μM vs AMP 30 μM; 125 μM ATP; 30 min room temperature; ratio 90% or higher = direct activator. The method, then:
The following biological test allows the determination of the efficacy of such compounds of formula (I) onto AMPK protein (recombinant α1β1γ2).
Human recombinant AMPK enzyme was expressed in E. Coli and was reactivated in vitro by LKB1 prior to enzyme activity determination.
AMPK enzyme activities were assayed by using A Delfia technology. AMPK enzyme activities were carried out in microtiter plates (50 mM Hepes buffer, pH 7.4 with 125 μM ATP respectively) in the presence of a synthetic peptide substrate (AMARAASAAALARRR, the “AMARA” peptide) and activators in serial dilutions. Reactions were initiated by the addition of AMPK (50-100 ng). Following mixing, the plates were incubated for 30 min at room temperature. Enzyme activity was assayed by using an anti-phosphoserine antibody to measure the quantity of phosphate incorporated into the AMARAA.
Ratio between the % of control (basal activity) of compound of formula (I) at 30 μM and the % of control (basal activity) of AMP (natural substrate) at 30 μM. Compounds of formula (I) in the table II are considered as direct activator of AMPK if the ratio is 90% or higher.

Another assay relates to H-2 Kb cells. Briefly: Glucose uptake in H-2 Kb cells (in vitro cellular test). The assay is classed as cell-based, mouse. The following applies: Mus musculus; differentiated H-2 Kb muscle cells, 4 hours incubation, 2-deoxy-D-[3H]glucose 10 min; read-out: activity: Concentration of compound for a glucose uptake equal or higher to glucose uptake induced by insulin (170 nM). The method, then: The following cellular test allows the determination of the effect of AMPK activators such as compounds of formula (I) onto glucose uptake in a muscle cellular model.
H-2 Kb cells derived from heterozygous H-2 Kb tsA58 transgenic mouse were grown in 24-well in plates coated with matrigel and were cultured at 33° C. for 4 days under permissive conditions, as described previously by Fryer et al. (Diabetes 49 (12): 1978, 2000).
For differentiation in muscle, cells were switched to non-permissive culture conditions (37° C. in the absence of interferon-γ). After 3 days, cells were incubated for 4 hours in DMEM 1 g/l glucose culture medium containing different concentrations of the tested molecules. Then glucose uptake was measured by incubating the cells for 10 min with radiolabelled 2-deoxy-D-[1, 2 ^3H] glucose. Glucose uptake was terminated by rapidly washing the plates 2 times with ice-cold NaCl 0.9%. The cells were then solubilized in 0.1N NaOH for 30 min. Radioactivity was determined by liquid scintillation counting.
Activity table III: Concentration of compound (1) for a glucose uptake equal or higher to glucose uptake induced by insulin (170 nM)

T1 sequence (Q13131 whole entry): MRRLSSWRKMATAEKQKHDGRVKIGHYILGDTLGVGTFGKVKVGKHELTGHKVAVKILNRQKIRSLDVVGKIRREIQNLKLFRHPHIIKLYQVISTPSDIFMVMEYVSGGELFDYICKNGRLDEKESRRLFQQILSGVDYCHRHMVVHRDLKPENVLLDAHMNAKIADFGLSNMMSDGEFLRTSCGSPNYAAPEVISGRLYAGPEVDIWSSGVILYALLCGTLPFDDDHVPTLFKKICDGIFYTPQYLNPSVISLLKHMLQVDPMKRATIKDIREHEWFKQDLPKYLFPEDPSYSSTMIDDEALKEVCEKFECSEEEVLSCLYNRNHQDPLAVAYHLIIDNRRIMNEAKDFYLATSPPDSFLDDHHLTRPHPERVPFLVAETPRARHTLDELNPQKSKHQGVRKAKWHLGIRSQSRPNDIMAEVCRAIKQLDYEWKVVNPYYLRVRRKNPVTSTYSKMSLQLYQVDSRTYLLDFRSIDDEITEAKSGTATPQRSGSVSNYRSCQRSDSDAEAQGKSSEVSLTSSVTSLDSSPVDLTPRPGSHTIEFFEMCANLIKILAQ
T1 sequence (Q9Y478 whole entry): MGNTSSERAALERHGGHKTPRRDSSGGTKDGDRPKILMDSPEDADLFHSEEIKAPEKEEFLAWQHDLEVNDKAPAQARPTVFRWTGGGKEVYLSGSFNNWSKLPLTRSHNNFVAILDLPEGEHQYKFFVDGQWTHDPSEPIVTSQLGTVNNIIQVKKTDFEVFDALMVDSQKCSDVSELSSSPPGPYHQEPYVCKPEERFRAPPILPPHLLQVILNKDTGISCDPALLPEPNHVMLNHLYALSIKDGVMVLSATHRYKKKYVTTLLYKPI
T1 sequence (Q9UGJ0 whole entry partner): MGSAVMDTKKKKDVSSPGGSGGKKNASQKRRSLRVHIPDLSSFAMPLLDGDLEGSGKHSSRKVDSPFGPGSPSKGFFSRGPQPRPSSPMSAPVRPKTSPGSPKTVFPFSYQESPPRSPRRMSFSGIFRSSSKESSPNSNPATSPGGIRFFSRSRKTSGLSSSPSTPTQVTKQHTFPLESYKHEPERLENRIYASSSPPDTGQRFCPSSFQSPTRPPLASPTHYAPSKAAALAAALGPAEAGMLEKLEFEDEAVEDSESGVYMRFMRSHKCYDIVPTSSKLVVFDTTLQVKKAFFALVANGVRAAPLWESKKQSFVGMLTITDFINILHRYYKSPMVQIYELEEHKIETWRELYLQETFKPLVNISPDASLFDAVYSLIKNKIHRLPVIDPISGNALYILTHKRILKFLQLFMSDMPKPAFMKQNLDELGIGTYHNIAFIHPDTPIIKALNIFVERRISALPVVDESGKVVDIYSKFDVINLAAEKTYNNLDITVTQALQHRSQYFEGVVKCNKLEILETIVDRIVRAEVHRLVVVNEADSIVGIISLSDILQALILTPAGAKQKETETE

On to `NC(=O)c1ncn([C@@H]2O[C@H](CO)[C@@H](O)[C@H]2O)c1N` [AICAR, 5-aminoimidazole-4-carboxamide riboside], for which the reduces blood glucose in the assay on ob/ob and db/db mice is listed as 35%.
`N#Cc1ccc(-c2c(O)c3c(-c4ccc(-c5ccccc5)cc4)csc3[nH]c2=O)cc1` [Compound 22, 3-biphenyl-4-yl-5-(4-cyanophenyl)-4-hydroxy-6,7-dihydro-thieno[2,3-b]pyridin-6-one]: the “activity: Ratio between the % of control (basal activity) of compound of formula (I) at 30 μM and the % of control (basal activity) of AMP at 30 μM” value (shortened to “activity: Ratio between the % of control”) in assay [1] is given as 152%. Further, in the assay on H-2 Kb cells, the EC (glucose uptake equal or higher to insulin 170 nM) is greater than 10 µM.
As to `Cc1ccccc1-c1ccc(-c2csc3[nH]c(=O)c(-c4cccnc4)c(O)c23)cc1` [Compound 35, 4-hydroxy-3-(2′-methylbiphenyl-4-yl)-5-pyridin-3-yl-6,7-dihydro-thieno[2,3-b]pyridin-6-one], the “activity: Ratio between the % of control” value in assay [1] is given as 161%. In addition, the EC (glucose uptake equal or higher to insulin 170 nM) in the assay on H-2 Kb cells is greater than 10 µM.
With `Cc1cccc(-c2ccc(-c3csc4[nH]c(=O)c(-c5cccnc5)c(O)c34)cc2)c1` [Compound 36, 4-hydroxy-3-(3′-methylbiphenyl-4-yl)-5-pyridin-3-yl-6,7-dihydro-thieno[2,3-b]pyridin-6-one], the “activity: Ratio between the % of control” value in assay [1] was 156%. Further, the EC (glucose uptake equal or higher to insulin 170 nM) with H-2 Kb cells was greater than 10 µM.

These data come from US8604202B2, “Thienopyridone derivatives as AMP-activated protein kinase (AMPK) activators” (Merck Patent GmbH, priority 2008, dated 2013).
